Each structure is given as a SMILES string. Values joined by “and” are separate entries in the source; they are usually repeats but may differ in a detail not shown here. Identical values can stand only once. Like-named read-outs stand apart in the source and are kept apart here.

Experiment [1] deals with T1, C1b domain of human PKCδ (Homo sapiens, UniProt Q05655).
T1 construct: Genes encoding C1b domains of human PKCα, δ, ε, θ, and PKD1 (PKCμ) were synthesized; made in house; host or cells: E. coli BL21(DE3)
Put plainly: biochemical. The format is binding. The settings on record: 3H-PDBu competition. As to the method: (§1) Compounds described in this disclosure were tested for binding affinity to C1b domain of PKC isoforms. Compound binding affinity to C1b domain of PKC isoforms was derived from competitive binding assay using radioactive tracer ^3H-PDBu and recombinant GST-C1b or full-length of human PKC proteins based on modified procedures from Methods in Molecular Biology, vol.
(§2) Genes encoding C1b domains of human PKCα, δ, ε, θ, and PKD1 (PKCμ) were synthesized and inserted into pGEX-2TK or pGEX-4T1 vectors for expression and production of GST-C1b proteins in E. coli BL21(DE3) via IPTG induction. The target proteins were purified by glutathione sepharose 4B and followed by ion exchange chromatography if needed to achieve purity >70%. Aliquots of the purified proteins were stored at −80 degree for binding assay (storage buffer: 20 mM Tris pH 8.0, 200 mM NaCl, 10% glycerol, 1 mM DTT).
(§3) The plate was incubated at 37° C. on a shaker at 300 rpm for 10 minutes and then put on ice for 20 minutes. […] The bottom of the filter plate was sealed and 50 μL of MicroScint-20 (PerkinElmer) cocktail was added to each well. ^3H-PDBu trapped in each well was counted using PerkinElmer MicroBeta2 Reader. Data were analyzed using GraphPad Prism5 with the model “log(inhibitor) vs. response-variable slope” to fit the IC50, and then IC50 was transformed to Ki using Cheng-Prusoff equation: Ki=IC50/(1+added radio ligand/Kd). Kd is the binding affinity of each protein preparation to ^3H-PDBu, determined experimentally.

Experiment [2] addresses T2, C1b domain of human PKCθ (Homo sapiens, UniProt Q04759).
T2 construct: Genes encoding C1b domains of human PKCα, δ, ε, θ, and PKD1 (PKCμ) were synthesized; made in house; host or cells: E. coli BL21(DE3)
T2 sequence (Q04759 231-281 limits assumed): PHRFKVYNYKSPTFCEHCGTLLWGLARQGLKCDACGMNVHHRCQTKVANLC
Put plainly: biochemical. The experiment is classed as binding. The note with it: 3H-PDBu competition. As to the method:
as §1, §2, §3

The subject of experiment [3] is A549 cell line. Put plainly: Proliferation of A549 (CellTiter Glo). The note with it: Homo sapiens, read-out: IC50 μM (A549 Cell Line). The experiment is classed as cell-based. On the procedure: The diterpenoid compounds were tested in A549, a non-small cell lung cancer cell line harboring a K-Ras activating mutation. Briefly, A549 cells at a density of 1,000 cells/well were seeded in 96-well plates and incubated at 37° C. for 24 hours. A series of different concentrations of compound stocks (500×) were prepared by 3-fold serial dilution in DMSO. These compounds were further diluted in culture media and then added to cells so that the final DMSO concentration was not exceeding 0.25%. After 96 hours of incubation, 50 μL of CellTiter Glo reagent (Promega) was added to each well and luminescence was measured after 10 minutes using EnVision (PerkinElmer). Luminescence from cells treated with DMSO alone was set as Max and % of inhibition was calculated as follows: Inhibition %=(Max-Sample value)/Max×100. Data was analyzed using XL-fit software (ID Business Solutions Ltd.) and IC50, relative IC50, and % of top inhibition was calculated. Some of the compounds in this disclosure were very potent in blocking proliferation of A549 lung cancer cells at low nM range. In addition, potency of inhibiting A549 proliferation correlated well with its binding affinity to PKCs for this series of compounds. In other words, higher affinity binders had stronger inhibitory effects on A549 proliferation. This further support the notion that activation, rather than inhibition, of certain PKC isoforms is required to block proliferation of cancer cells, some of which may harbor K-Ras mutations. This is in sharp contrast to previous literature and common belief that inhibition of PKC is necessary to block cancer cell growth (Kang, 2014, New Journal of Science, 2014:1-36). Data presented here is in agreement with recent findings that many loss-of-function but not gain-of-function mutations of PKC isoforms have been identified in many human cancers (Antal et al., 2015, Cell, 160:489-502).

Experiment [4] has as its target T3, C1b domain of human PKD1 (PKCμ) (Homo sapiens, UniProt Q15139).
T3 construct: Genes encoding C1b domains of human PKCα, δ, ε, θ, and PKD1 (PKCμ) were synthesized; made in house; host or cells: E. coli BL21(DE3)
T3 sequence (Q15139 270-320 limits assumed): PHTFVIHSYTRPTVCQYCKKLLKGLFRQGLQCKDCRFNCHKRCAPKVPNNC
Briefly: Competitive 3H-PDBu binding assay, C1b domain of PKD1 (PKCμ). The note with it: 3H-PDBu competition. On the procedure:
as §1, §2, §3

In experiment [5] the test system is CT26 tumors. Put plainly: CT26 tumor after single dose intratumoral treatment, H&E stain and CD31 IHC. The experiment is classed as in vivo, mouse. The note with it: for CD31 IHC (counts per mm^2) / H&E Necrotic tumor area (%): individual tumors. On the procedure: Method. Each 6-8 weeks old female Balb/c mouse was implanted with 3×10^5 CT26 mouse colon cancer cells in one flank for tumor development. When the average tumor volume reached 95 mm^3, 21 mice were randomized into different groups and were treated via a single IT injection (20 uL) according to the group assignment (different dose and treatment duration) in the table below. Tumors were harvested at 1h, 7h, or 24h post IT injection, and then fixed and processed for paraffin embedding.
Paraffin blocks were sectioned into […] sections using Leica RM2235 microtome. One section was stained for Hematoxylin-Eosin (H&E) using Leica ST5020-CV5030 stainer integrated workstation according to the Manufacture's procedure. Photos were taken using Nikon DS-Ri2. Another section was processed for IHC staining with the CD31 antibody (BD, Cat #550274) at 1:10 dilution. The stained slides were scanned using Leica Aperio VERSA 8 and the images were analyzed using HALO image analysis software system (Indica Labs).

T1 sequence (Q05655 230-280 limits assumed): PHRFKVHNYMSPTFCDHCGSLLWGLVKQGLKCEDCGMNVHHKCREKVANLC

As usually defined, the Ki is the equilibrium dissociation constant of an inhibitor or competing ligand from its target. Lower therefore signals a stronger hold on the target. What is called IC50 is the concentration that gives 50% inhibition. In the case of `CC1=C[C@H]2[C@@]3(O)[C@H](C)C[C@]4(OC(=O)[C@@H](N)CCCCCCc5ccc(C(F)F)cc5)[C@H]([C@@H]3C=C(CO)C[C@]2(O)C1=O)C4(C)C`, the Ki in experiment [1] and in experiment [2] was 10 to 30 nM in each case. In experiment [3] (A549, 96 h), the IC50 lay within 0.1 to 0.2 µM.
For the compound `CC1=C[C@H]2[C@@]3(O)[C@H](C)C[C@]4(OC(=O)[C@H](N)Cc5c[nH]c6ccccc56)[C@H]([C@@H]3C=C(CO)C[C@]2(O)C1=O)C4(C)C`, the Ki in experiment [4] was in the range of 10 to 30 nM. Also, the IC50 in experiment [3] (A549, 96 h) lay in the range of 10 to 30 µM.
As for `CC1=C[C@H]2[C@@]3(O)[C@H](C)C[C@]4(OC(=O)C5CC6(C5)CN(C(=O)OC(C)(C)C)C6)[C@H]([C@@H]3C=C(CO)C[C@]2(O)C1=O)C4(C)C`, the Ki in experiment [1] and in experiment [2] was 10 to 30 nM in each case. Moreover, the IC50 in experiment [3] (A549, 96 h) lay within 0.1 to 0.2 µM.
Take `CC1=C[C@H]2[C@@]3(O)[C@H](C)C[C@]4(OC(=O)[C@H](N)CCCCCCc5ccccc5)[C@H]([C@@H]3C=C(COC(=O)[C@@H](N)C(C)C)C[C@]2(O)C1=O)C4(C)C` [listing 1 of 2 here]: the “reduction of CD31 density, on average, compared with the vehicle control” value in experiment [5] (24h, all dose levels (47.2 μg, 141.6 μg, and 472 μg)) is reported as greater than 50%.
In experiment [4], `CC1=C[C@H]2[C@@]3(O)[C@H](C)C[C@]4(OC(=O)CCCCCCCCCCCC(=O)O)[C@H]([C@@H]3C=C(CO)C[C@]2(O)C1=O)C4(C)C` yielded a Ki of 60 to 100 nM. Also, in experiment [3] (A549, 96 h), the IC50 was in the range of 10 to 30 µM.
Take `CC1=C[C@H]2[C@@]3(O)[C@H](C)C[C@]4(OC(=O)[C@H](N)CCc5ccc(C(F)(F)F)cc5)[C@H]([C@@H]3C=C(CO)C[C@]2(O)C1=O)C4(C)C`: in experiment [4], the Ki lay within 10 to 30 nM. Moreover, the IC50 in experiment [3] (A549, 96 h) was 0.2 to 0.6 µM.
The compound `CC1=C[C@H]2[C@@]3(O)[C@H](C)C[C@]4(OC(=O)[C@@H](O)Cc5ccccc5)[C@H]([C@@H]3C=C(CO)C[C@]2(O)C1=O)C4(C)C` came in with a Ki in experiment [4] of 10 to 30 nM. Further, the IC50 in experiment [3] (A549, 96 h) lay in the range of 0.2 to 0.6 µM.
For the compound `CC1=C[C@H]2[C@@]3(O)[C@H](C)C[C@]4(OC(=O)[C@H](N)CCCCCCc5ccccc5)[C@H]([C@@H]3C=C(COC(=O)[C@@H](N)C(C)C)C[C@]2(O)C1=O)C4(C)C` [listing 2 of 2 here], in experiment [3] (A549, 96 hours, CellTiter Glo), the IC50 was 0.03 to 0.06 µM. The “CD31 IHC (counts per mm^2)” value in experiment [5] (47.2 μg single IT, 24 h) is 163 counts per mm^2 and 111 counts per mm^2; in experiment [5] (141.6 μg single IT, 24 h), 176 counts per mm^2 and 29 counts per mm^2 and 72 counts per mm^2; in experiment [5] (472 μg single IT, 1 h), 577 counts per mm^2 and 457 counts per mm^2 and 463 counts per mm^2; in experiment [5] (472 μg single IT, 7 h), 188 counts per mm^2 and 536 counts per mm^2 and 179 counts per mm^2; in experiment [5] (472 μg single IT, 24 h), 155 counts per mm^2 and 187 counts per mm^2 and 118 counts per mm^2. The “H&E Necrotic tumor area (%)” value in experiment [5] (47.2 μg single IT, 24 h) is 40% and 70%; in experiment [5] (141.6 μg single IT, 24 h), 80% (2×) and 90%; in experiment [5] (472 μg single IT, 1 h), 5% and 3% and 0%; in experiment [5] (472 μg single IT, 7 h), 10% and 0% and 25%; in experiment [5] (472 μg single IT, 24 h) it was 40% and 30% and 90%. In experiment [5] (47.2 μg, 7h), the “tumors with reduction of CD31 density” value was 2 out of 3. The “massive cell death in tumors” value in experiment [5] (all three doses, 24h) was “up to 90%”.
